Data reported in article PMC11984388, “A brain-accessible peptide modulates stroke inflammatory response and neurotoxicity by targeting BDNF-receptor TrkB-T1 specific interactome” (Theranostics, 2025).
Residues, ends and D or L forms follow the SMILES beside them. *: point of attachment. Biotin = O=C1N[C@H]2[C@H](CS[C@H]2CCCCC(=O)*)N1

Tested on: neurons of primary cortical cultures
Assay: Neuronal viability (MTT) under NMDA excitotoxicity
Type: cell-based, rat
Procedure: Cultures were prepared from cerebral cortex of 18-day-old Wistar rat embryos, both genders indistinctly included. Unless otherwise indicated, glial growth was inhibited after 7 days in vitro (DIVs), experimental treatments taking place after 12 DIVs. These cultures present a high percentage of neurons, combined with glial cells, mostly astrocytes. To induce excitotoxicity, cultures were incubated with NMDA (100 µM) and its co-agonist glycine (10 µM), herein denoted simply as NMDA, which induce a strong excitotoxic response in mature neurons but have no effect on astrocyte viability,[47]. When indicated, cultures were preincubated for 30 min with indicated concentrations of Tat-derived CPPs before NMDA treatment, peptides being kept in the medium along treatment. Total cell or neuronal viability assessment was established by the thiazolyl blue formazan (MTT) reduction assay. Further details are provided as Supplementary material. […]
skull for 10 min. Br ain injury encompas se s damage to vas cular endothelium, platelet activation, and subs equent microvascula r thrombotic occlus ion of the irradiate d region. The ar eas underneath this ste reotaxic position that result irradiate d ar e the prima ry motor cortex and the prima ry soma tos ens ory cortex (hindlimb and forelimb). Once completed surgery, the incision was sutured, and mice were allowed to recover.
For neuroprote ction experiments, a single dose (3 nmol/g) of peptides TMyc or TT1Ct (> 95% purity; GenScript), solubilized as 2.5 mM solutions in 0.9% NaC l, we retro-orbita lly injected 1 h af ter damage initiation. In order to improve their plas ma sta bility, thes e peptides ar e N- and C-ter modifie d by, respec tive ly, ace tyl and amide groups. Mi c e were not subje cted to other procedures before isc hemia and were naive to drug or peptide treatment. Animals were randomly allocated to the experimental groups and the resea rc hers doing the experiments were blind respec t to treatment. There was not a previous es tima tion of sa mple si z e and experiments were independently car r ied out as indicated. Twenty-four hours af ter damage induction, animals completed the beam walking test and were subs equently sa cri f i ced by cervical disloca tion to meas ure the infarc t volume, as indicated below. Be fore that, brains were se ctioned into se ri al 1-mm-thick coronal sl i ce s using a mouse brain matrix (Stoe lting, Wood Dale, IL, USA), and se ctions were completely sta ine d with 2% TTC at room temperature to visua liz e the cortical infarc ts . For immunohistochemis try, animals were deeply anes thetized 5 or 24 h af ter brain damage and intra cardially perfus ed with cold PBS and 4% paraformalde hyde in PBS as indicated below.
Primary cultures of rat cor tic al neurons to study in vitro excitotoxicity The diss ected cerebral cortices of Wis ta r rat embryos (E18), both genders included, were mechanic ally diss ociated in culture medium (Minimum Esse ntia l Me dium, ME M, Life Technologies) follow ed by se eding of the cell sus pens ion at a dens ity of 1.1x10^6 cells /ml, prepared in the sa m e medium supple me nted with 22.2 mM glucos e, 0.1 mM glutamax, 5% foetal bovine se rum (FBS), 5% donor horse se rum (HS), 100 U/ml penicillin and 100 µg/ml streptomycin. Be fore se eding, the plates were treated overnight at 37°C with 100 µg/ml poly-L-lysine and 4 µg/ml laminin. The cells were incubated at 37°C in an atmosphe re of 5% CO2 and 95% humidity. Generally, glial growth was inhibited af ter 7 days in vitro (DIV s) by adding 10 µM 5 cytos ine β-D-arabinofuranos ide (AraC) and experimental treatments took place af ter 12 DIVs. Excitotoxicity was induced by incubation with NM DA (100 µM) and glycine (10 µM) for the indicated times. As indicated, cultures were preincubated with Tat-derived CP P s before […]
Mi c e had to walk through a narrow beam (1 m × 1 cm × 1 cm) placed 50 cm above the tabletop, going from an aversive stimulus (60-W light bulb) to a black goal box with nes ting material. […]

[1] = peptide 25 µM preincubated 30 min, NMDA 100 µM + glycine 10 µM for 2 h, relative to untreated cells (100%), mean ± SEM, n = 8 (Fig 1E)
[2] = peptide 25 µM preincubated 30 min, NMDA 100 µM + glycine 10 µM for 4 h, relative to untreated cells (100%), mean ± SEM, n = 8 (Fig 1E)

Row | Molecule | Relative neuronal viability (%) [1] | Relative neuronal viability (%) [2] | Neuronal viability (CPPs 0: peptide and NMDA (100 µM) at the same time, viability after 4 h of excitotoxicity, relative to untreated cells (100%), mean, n = 4-8 (Fig S4)) | Neuronal viability (CPPs 30: peptide added 30' post-NMDA (100 µM), viability after 4 h of excitotoxicity, relative to untreated cells (100%), mean, n = 4-8 (Fig S4)) | Neuronal viability (CPPs 60: peptide added 60' post-NMDA (100 µM), viability after 4 h of excitotoxicity, relative to untreated cells (100%), mean, n = 4-8 (Fig S4)) | Neuronal viability (dose-response experiment (Fig 3B): peptide 15 µM preincubated 30 min, NMDA 2 h, mean ± SEM, n = 8) | Relative neuronal viability (%) (2 h, 15 µM) | Relative neuronal viability (%) (4 h, 15 µM)
1 | CC[C@H](C)[C@H](NC(=O)[C@H](CC(C)C)NC(=O)[C@H](CCCCN)NC(=O)[C@H](CCC(N)=O)NC(=O)[C@H](CCC(=O)O)NC(=O)[C@H](CCC(=O)O)NC(=O)[C@H](C)NC(=O)[C@H](CCCNC(=N)N)NC(=O)[C@H](CCCNC(=N)N)NC(=O)[C@H](CCCNC(=N)N)NC(=O)[C@H](CCC(N)=O)NC(=O)[C@H](CCCNC(=N)N)NC(=O)[C@H](CCCNC(=N)N)NC(=O)[C@H](CCCCN)NC(=O)[C@H](CCCCN)NC(=O)[C@H](CCCNC(=N)N)NC(=O)CNC(=O)[C@H](Cc1ccc(O)cc1)NC(=O)CCCC[C@@H]1SC[C@@H]2NC(=O)N[C@@H]21)C(=O)N[C@@H](CO)C(=O)N[C@@H](CCC(=O)O)C(=O)N[C@@H](CCC(=O)O)C(=O)N[C@@H](CC(=O)O)C(=O)N[C@@H](CC(C)C)C(=O)N[C@@H](CC(C)C)C(=O)N[C@@H](CCCNC(=N)N)C(N)=O [Bio-TMyc, reference compound] (Biotin-YGRKKRRQRRRAEEQKLISEEDLLR-NH2) | 24 ± 3% | 16 ± 3% | – | – | – | – | – | –
2 | Ac-YGRKKRRQRRRPPFVLFHKIPLDG-NH2 [TT1Ct] | – | – | 59% | 31% | 37% | 46 ± 7% | – | –
3 | CC[C@H](C)[C@H](NC(=O)[C@H](CCCCN)NC(=O)[C@H](Cc1c[nH]cn1)NC(=O)[C@H](Cc1ccccc1)NC(=O)[C@H](CC(C)C)NC(=O)[C@@H](NC(=O)[C@H](Cc1ccccc1)NC(=O)[C@H](CCCNC(=N)N)NC(=O)[C@H](CCCNC(=N)N)NC(=O)[C@H](CCCNC(=N)N)NC(=O)[C@H](CCC(N)=O)NC(=O)[C@H](CCCNC(=N)N)NC(=O)[C@H](CCCNC(=N)N)NC(=O)[C@H](CCCCN)NC(=O)[C@H](CCCCN)NC(=O)[C@H](CCCNC(=N)N)NC(=O)CNC(=O)[C@H](Cc1ccc(O)cc1)NC(=O)CCCC[C@@H]1SC[C@@H]2NC(=O)N[C@@H]21)C(C)C)C(=O)N1CCC[C@H]1C(=O)N[C@@H](CC(C)C)C(=O)N[C@@H](CC(=O)O)C(=O)NCC(N)=O [Bio-sTT1Ct] (Biotin-YGRKKRRQRRRFVLFHKIPLDG-NH2) | 50 ± 5% | 32 ± 3% | – | – | – | – | 45% | 39%
